Test results: US20110015119A1, “NOVEL SEMI-SYNTHETIC GLYCOPEPTIDES AS ANTIBACTERIAL AGENTS” (LEAD THERAPEUTICS, INC., priority 2009, published 2011)
Values after ≈ are worked out from the molar mass of the structure shown. Like-named read-outs stand apart in the source and are kept apart here.

Assays:
Type in all cases: cell-based
[1] = test system: Enterococcus faecalis 101 (ATCC 29212); assay: MIC by broth microdilution, EFc 101; conditions: class symbols
Summary of the method: (§1)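 Mueller-Hinton broth served as medium for CLSI broth microdilution MIC determination. Serial dilutions were performed robotically.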

[2] = test system: Streptococcus pneumoniae 1195 (ATCC 49619); assay: MIC by broth microdilution, SPNE 1195
Summary of the method: as §1

[3] = test system: Streptococcus pyogenes 712; assay: MIC by broth microdilution, SPY 712
Summary of the method: as §1

[4] = test system: Staphylococcus aureus 100 (ATCC 29213); assay: MIC by broth microdilution, SA 100
Summary of the method: as §1

[5] = test system: Enterococcus faecium 800; assay: MIC by broth microdilution, EFcm 800
Summary of the method: as §1

[6] = test system: Staphylococcus epidermidis 831 (MRSE); assay: MIC by broth microdilution, SE 831; conditions: read-out: MIC SE 831
Summary of the method: as §1

[7] = test system: Enterococcus faecalis 848 (VRE, Van A); assay: MIC by broth microdilution, EFc 848; conditions: class symbols
Summary of the method: as §1

[8] = test system: Enterococcus faecium 752 (VRE, Van A); assay: MIC by broth microdilution, EFcm 752; conditions: class symbols
Summary of the method: as §1

[9] = test system: Staphylococcus aureus 757 (MRSA); assay: MIC by broth microdilution, SA 757; conditions: read-out: MIC SA 757
Summary of the method: as §1

[10] = test system: Staphylococcus aureus 2012 (VISA); assay: MIC by broth microdilution, SA 2012; conditions: class symbols
Summary of the method: as §1

[11] = test system: Staphylococcus epidermidis 835; assay: MIC by broth microdilution, SE 835
Summary of the method: as §1

[12] = ATCC29212, Enterococcus faecalis 101 (ATCC 29212), read-out: MIC E FC 101
[13] = ATCC49619, Streptococcus pneumoniae 1195 (ATCC 49619), class symbols, read-out: MIC S PNE 1195
[14] = Streptococcus pyogenes 712, class symbols, read-out: MIC S PYO 712
[15] = ATCC29213, Staphylococcus aureus 100 (ATCC 29213), class symbols, read-out: MIC SA 100
[16] = Enterococcus faecium 800, class symbols, read-out: MIC E FCM 800
[17] = Staphylococcus epidermidis 831 (MRSE), class symbols
[18] = Enterococcus faecalis 848 (VRE, Van A), read-out: MIC E FC 848
[19] = Enterococcus faecium 752 (VRE, Van A), read-out: MIC E FCM 752
[20] = Staphylococcus aureus 757 (MRSA), class symbols
[21] = Staphylococcus aureus 2012 (VISA), read-out: MIC SA 2012
[22] = Staphylococcus epidermidis 835, class symbols, read-out: MIC SE 835

Compound | MIC [1, 12] [µg/mL] | MIC [2, 13] [µg/mL] | MIC [3, 14] [µg/mL] | MIC [4, 15] [µg/mL] | MIC [5, 16] [µg/mL] | MIC [6, 17] [µg/mL] | MIC [7, 18] [µg/mL] | MIC [8, 19] [µg/mL] | MIC [9, 20] [µg/mL] | MIC [10, 21] [µg/mL] | MIC [11, 22] [µg/mL] | other results
CCCCCCCCc1ccc(S(=O)(=O)NCCCCCCNCc2c(O)cc3c(c2O)-c2cc(ccc2O)[C@H]2NC(=O)[C@@H]4NC(=O)[C@H](CC(N)=O)NC(=O)[C@H](NC(=O)[C@@H](CC(C)C)NC)[C@H](O)c5ccc(c(Cl)c5)Oc5cc4cc(c5O[C@@H]4O[C@H](CO)[C@@H](O)[C@H](O)[C@H]4O[C@H]4C[C@](C)(NC(=O)NC5CC5)[C@H](O)[C@H](C)O4)Oc4ccc(cc4Cl)[C@@H](O)[C@H](NC2=O)C(=O)N[C@@H]3C(=O)O)cc1 (atropisomer, axis not shown) [Compound 366] | 0.01 to 0.5 (≈ 0.00523 to 0.261 µM) | 0.01 to 0.5 (≈ 0.00523 to 0.261 µM) | 0.01 to 0.5 (≈ 0.00523 to 0.261 µM) | 0.01 to 0.5 (≈ 0.00523 to 0.261 µM) | 0.01 to 0.5 (≈ 0.00523 to 0.261 µM) | 0.01 to 0.5 (≈ 0.00523 to 0.261 µM) | 8 to 16 (≈ 4.18 to 8.36 µM) | 2 to 4 (≈ 1.05 to 2.09 µM) | 0.01 to 0.5 (≈ 0.00523 to 0.261 µM) | 0.01 to 0.5 (≈ 0.00523 to 0.261 µM) | 0.01 to 0.5 (≈ 0.00523 to 0.261 µM) | –
CCCCCCc1ccc(NC(=O)NCCCCCCNCc2c(O)cc3c(c2O)-c2cc(ccc2O)[C@H]2NC(=O)[C@@H]4NC(=O)[C@H](CC(N)=O)NC(=O)[C@H](NC(=O)[C@@H](CC(C)C)NC)[C@H](O)c5ccc(c(Cl)c5)Oc5cc4cc(c5O[C@@H]4O[C@H](CO)[C@@H](O)[C@H](O)[C@H]4O[C@H]4C[C@](C)(NC(=O)NC5CC5)[C@H](O)[C@H](C)O4)Oc4ccc(cc4Cl)[C@@H](O)[C@H](NC2=O)C(=O)N[C@@H]3C(=O)O)cc1 (atropisomer, axis not shown) [Compound 368] | 0.01 to 0.5 (≈ 0.00537 to 0.268 µM) | 0.01 to 0.5 (≈ 0.00537 to 0.268 µM) | 0.01 to 0.5 (≈ 0.00537 to 0.268 µM) | 0.01 to 0.5 (≈ 0.00537 to 0.268 µM) | 0.01 to 0.5 (≈ 0.00537 to 0.268 µM) | 0.01 to 0.5 (≈ 0.00537 to 0.268 µM) | > 16 | 2 to 4 (≈ 1.07 to 2.15 µM) | 0.01 to 0.5 (≈ 0.00537 to 0.268 µM) | 0.5 to 1 (≈ 0.268 to 0.537 µM) | 0.01 to 0.5 (≈ 0.00537 to 0.268 µM) | –
CCCCCCCCNC(=O)Oc1cc(O)c2c(c1)[C@@H](C(=O)NC1C3CC4CC(C3)CC1C4)NC(=O)[C@H]1NC(=O)[C@H](NC(=O)[C@@H]3NC(=O)[C@H](CC(N)=O)NC(=O)[C@H](NC(=O)[C@@H](CC(C)C)NC)[C@H](O)c4ccc(c(Cl)c4)Oc4cc3cc(c4OC3OC(CO)C(O)C(O)C3OC3CC(C)(N)C(O)C(C)O3)Oc3ccc(cc3Cl)[C@H]1O)c1ccc(O)c-2c1 (stereo partly shown) [Compound 33] | – | – | – | – | – | – | – | – | – | – | – | MIC ([1]; Enterococcus faecalis, ATCC29212, read-out: MIC E FC 101, Enterococcus faecalis 101 (ATCC 29212)): 0.01 to 0.5 µg/mL (≈ 0.00575 to 0.288 µM); MIC ([2]; Streptococcus pneumoniae, ATCC49619, read-out: MIC S PNE 1195): 0.01 to 0.5 µg/mL (≈ 0.00575 to 0.288 µM); MIC ([3]; Streptococcus pyogenes, 712, read-out: MIC S PYO 712): 0.01 to 0.5 µg/mL (≈ 0.00575 to 0.288 µM); MIC ([4]; Staphylococcus aureus, ATCC29213, read-out: MIC SA 100): 0.01 to 0.5 µg/mL (≈ 0.00575 to 0.288 µM); MIC ([5]; Enterococcus faecium, 800, read-out: MIC E FCM 800): 0.01 to 0.5 µg/mL (≈ 0.00575 to 0.288 µM); MIC ([6]; Staphylococcus epidermidis, MRSE): 0.01 to 0.5 µg/mL (≈ 0.00575 to 0.288 µM); MIC ([7]; Enterococcus faecalis, VRE, read-out: MIC E FC 848, Enterococcus faecalis 848 (VRE, Van A)): 2 to 4 µg/mL (≈ 1.15 to 2.3 µM); MIC ([8]; Enterococcus faecium, VRE, read-out: MIC E FCM 752, Enterococcus faecium 752 (VRE, Van A)): 0.5 to 1 µg/mL (≈ 0.288 to 0.575 µM); MIC ([9]; Staphylococcus aureus, MRSA): 0.01 to 0.5 µg/mL (≈ 0.00575 to 0.288 µM); MIC ([10]; Staphylococcus aureus, VISA, read-out: MIC SA 2012, Staphylococcus aureus 2012 (VISA)): 0.5 to 1 µg/mL (≈ 0.288 to 0.575 µM); MIC ([11]; Staphylococcus epidermidis, 835, read-out: MIC SE 835): 0.01 to 0.5 µg/mL (≈ 0.00575 to 0.288 µM)

Further lines, with some results ahead:

MIC [1, 12] [µg/mL] | MIC [2, 13] [µg/mL] | MIC [3, 14] [µg/mL] | MIC [4, 15] [µg/mL] | MIC [5, 16] [µg/mL] | MIC [6, 17] [µg/mL] | MIC [7, 18] [µg/mL] | MIC [8, 19] [µg/mL] | MIC [9, 20] [µg/mL] | MIC [10, 21] [µg/mL] | MIC [11, 22] [µg/mL] | Compound | other results
0.01 to 0.5 (≈ 0.00531 to 0.265 µM) | 0.01 to 0.5 (≈ 0.00531 to 0.265 µM) | 0.01 to 0.5 (≈ 0.00531 to 0.265 µM) | 0.01 to 0.5 (≈ 0.00531 to 0.265 µM) | 0.01 to 0.5 (≈ 0.00531 to 0.265 µM) | 0.01 to 0.5 (≈ 0.00531 to 0.265 µM) | > 16 | 1 to 2 (≈ 0.531 to 1.06 µM) | 0.01 to 0.5 (≈ 0.00531 to 0.265 µM) | 0.01 to 0.5 (≈ 0.00531 to 0.265 µM) | 0.01 to 0.5 (≈ 0.00531 to 0.265 µM) | CCCCCCc1ccc(S(=O)(=O)NCCCCCCNCc2c(O)cc3c(c2O)-c2cc(ccc2O)[C@H]2NC(=O)[C@@H]4NC(=O)[C@H](CC(N)=O)NC(=O)[C@H](NC(=O)[C@@H](CC(C)C)NC)[C@H](O)c5ccc(c(Cl)c5)Oc5cc4cc(c5O[C@@H]4O[C@H](CO)[C@@H](O)[C@H](O)[C@H]4O[C@H]4C[C@](C)(NC(=O)NC5CC5)[C@H](O)[C@H](C)O4)Oc4ccc(cc4Cl)[C@@H](O)[C@H](NC2=O)C(=O)N[C@@H]3C(=O)O)cc1 (atropisomer, axis not shown) [Compound 365] | –
0.01 to 0.5 (≈ 0.0053 to 0.265 µM) | 0.01 to 0.5 (≈ 0.0053 to 0.265 µM) | 0.01 to 0.5 (≈ 0.0053 to 0.265 µM) | 0.01 to 0.5 (≈ 0.0053 to 0.265 µM) | 0.01 to 0.5 (≈ 0.0053 to 0.265 µM) | 0.01 to 0.5 (≈ 0.0053 to 0.265 µM) | > 16 | 4 to 8 (≈ 2.12 to 4.24 µM) | 0.01 to 0.5 (≈ 0.0053 to 0.265 µM) | 0.01 to 0.5 (≈ 0.0053 to 0.265 µM) | 0.01 to 0.5 (≈ 0.0053 to 0.265 µM) | CCCCCCc1ccc(S(=O)(=O)NCCCCCCNCc2c(O)cc3c(c2O)-c2cc(ccc2O)[C@H]2NC(=O)[C@@H]4NC(=O)[C@H](CC(N)=O)NC(=O)[C@H](NC(=O)[C@@H](CC(C)C)NC)[C@H](O)c5ccc(c(Cl)c5)Oc5cc4cc(c5O[C@@H]4O[C@H](CO)[C@@H](O)[C@H](O)[C@H]4O[C@H]4C[C@](C)(NC(N)=O)[C@H](OC(N)=O)[C@H](C)O4)Oc4ccc(cc4Cl)[C@@H](O)[C@H](NC2=O)C(=O)N[C@@H]3C(=O)O)cc1 (atropisomer, axis not shown) [Compound 370] | –
